In patent publication US20190231718A1, “TREATMENT OF BREAST CANCER” (Duke University, priority 2016, published 2019):
Numbering of substitutions follows the chain as printed. Where two headings read alike, the source gives them in different places.

Columns and labels:
[1] = target: T1, ESR1 wild type receptor (ERα WT) (Homo sapiens, UniProt P03372); assay: ERE-luciferase reporter gene assay, wild-type ERα, Caov2 cells; type: cell-based
T1 construct: expressed in transfected cells; host or cells: Caov2 ovarian carcinoma cells; SKBR3 breast adenocarcinoma cells
T1 sequence (P03372 1-595): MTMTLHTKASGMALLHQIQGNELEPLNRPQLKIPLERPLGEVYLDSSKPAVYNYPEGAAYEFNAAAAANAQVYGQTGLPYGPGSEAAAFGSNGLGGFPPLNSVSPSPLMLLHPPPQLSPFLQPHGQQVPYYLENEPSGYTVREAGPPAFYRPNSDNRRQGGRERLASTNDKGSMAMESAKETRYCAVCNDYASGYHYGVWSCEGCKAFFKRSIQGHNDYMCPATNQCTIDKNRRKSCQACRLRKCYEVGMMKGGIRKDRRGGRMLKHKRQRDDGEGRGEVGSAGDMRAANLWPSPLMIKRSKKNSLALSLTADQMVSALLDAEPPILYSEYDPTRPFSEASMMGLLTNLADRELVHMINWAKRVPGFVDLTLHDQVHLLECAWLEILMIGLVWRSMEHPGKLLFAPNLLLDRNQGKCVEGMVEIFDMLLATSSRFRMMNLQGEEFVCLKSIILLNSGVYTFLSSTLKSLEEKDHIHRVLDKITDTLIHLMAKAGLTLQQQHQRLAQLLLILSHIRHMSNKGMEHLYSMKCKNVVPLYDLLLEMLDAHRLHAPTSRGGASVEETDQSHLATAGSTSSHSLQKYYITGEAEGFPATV
Procedure: (§1) ExSite mutagenesis was performed using the corresponding primers as summarized in Table 1 below on a pENTR2B ERα WT construct using Pfu ultra taq polymerase. The primers were PNK phosphorylated. Following PCR amplification, the products were digested with DpnI at 37° C. for 1 hr, followed by overnight ligation at 16° C. Ligated products were transformed into DH5α bacterial cells and grown on kanamycin resistant plates. The pENTR clones were verified by sequencing and then swapped into the pcDNA-DEST vector using the Gateway system (Invitrogen) for expression analysis.
(§2) Caov2 ovarian carcinoma cells were grown in RPMI-1640 media (Gibco) supplemented with 8% Fetal Bovine Serum (FBS), Sodium Pyruvate (NaPyr) and non-essential amino acids (NEAA) and passaged every 2-3 days. SKBR3 breast adenocarcinoma cells were grown in DMEM media (Gibco) supplemented with 8% Fetal Bovine Serum (FBS), Sodium Pyruvate (NaPyr) and non-essential amino acids (NEAA) and passaged every 2-3 days. […]
(§3) Caov2 cells were co-transfected with the 7X-TK-ERE-TATA luciferase reporter gene (Nagel et al., Endocrinology 142(11): 4721-4728 (2001)) and expression constructs for either wild-type or mutant receptors using Fugene transfection reagent (Promega). […] Following 24 hours of treatment, cells were lysed and the luciferase and β-gal assays were performed as described previously (Norris et al., J Biol Chem 270(39): 22777-22782 (1995)) and the plates were read on the Fusion α-FP HT plate reader (PerkinElmer Life Sciences).
(§4) See Jeselsohn et al., Nature Reviews Clinical Oncology 12(10): 573-583 (2015); Jeselsohn et al., Clinical Cancer Research 20(7): 1757-1767 (2014); Robinson et al., Nature Genetics 45(12): 1446-1451(2013); Thomas and Gustafsson, Trends in Endocrinology and Metabolism 26(9): 467-476 (2015); and Toy et al., Nature Genetics 45(12): 1439-1445 (2013). The activity of these mutants was evaluated in a reconstituted estrogen response element (ERE)-luciferase reporter assay in Caov2 ovarian carcinoma cells and SKBR3 breast adenocarcinoma cells. […]

[2] = target: T2, Y537N mutant receptor (ERα LBD mutant) (Homo sapiens, UniProt P03372, Y537N); assay: ERE-luciferase reporter gene assay, ERα Y537N, Caov2 cells; type: cell-based
T2 construct: expressed in transfected cells; host or cells: Caov2 ovarian carcinoma cells; SKBR3 breast adenocarcinoma cells
T2 sequence (P03372 1-595 Y537N): T1 sequence (P03372 1-595) with Y537N
Procedure: as §1, §2, §3, §4

[3] = target: T3, Y537C mutant receptor (ERα LBD mutant) (Homo sapiens, UniProt P03372, Y537C); assay: ERE-luciferase reporter gene assay, ERα Y537C, Caov2 cells; type: cell-based
T3 construct: expressed in transfected cells; host or cells: Caov2 ovarian carcinoma cells; SKBR3 breast adenocarcinoma cells
T3 sequence (P03372 1-595 Y537C): T1 sequence (P03372 1-595) with Y537C
Procedure: as §1, §2, §3, §4

[4] = target: T1, ESR1 wild type receptor (ERα WT); assay: ERE-luciferase reporter gene assay, wild-type ERα, SKBR3 cells; type: cell-based
Procedure: as §1, §2, §3, §4

[5] = target: T2, Y537N mutant receptor (ERα LBD mutant); assay: ERE-luciferase reporter gene assay, ERα Y537N, SKBR3 cells; type: cell-based
Procedure: as §1, §2, §3, §4

[6] = target: T3, Y537C mutant receptor (ERα LBD mutant); assay: ERE-luciferase reporter gene assay, ERα Y537C, SKBR3 cells; type: cell-based
Procedure: as §1, §2, §3, §4

[7] = Reported Cmax in blood at approved doses; type: in vivo
Excerpt: See Maximov et al., Current Clinical Pharmacology 8(2): 135-155 (2013) and McDonnell et al., Journal of Medicinal Chemistry 58(12): 4883-4887 (2015). The transcriptional IC90 values of ER modulators evaluated were compared to the Cmax of these compounds in blood at approved doses. See Highlights of Prescribing Information: Evista, 2007; Highlights of Prescribing Information: Faslodex, 2012; Nolvadex, 2006; and Summary of Product Characteristics: Conbriza 2009.

[8] = in blood at approved doses: ICI 500 mg, 4OHT 20 mg, raloxifene 60 mg, bazedoxifene 20 mg; cited from earlier work
[9] = human, blood, reported Cmax converted to molar, same approved doses, read-out: Converted (M) Cmax

Which “Caov2 Ratio Cmax/IC90” value [1] does the source give for 4-hydroxytamoxifen [4OHT] here?
Its value is 119.01.

What about the IC90 [1] of the same molecule?
The IC90 was 0.924 nM.

And the “inhibition of receptor transcriptional activity (in words)” value (“inhibition” below) [1]?
The value was “inhibits activity of the ESR1 wild type receptor”.

And the “Caov2 Ratio Cmax/IC90” value [2]?
The value was 11.6.

And the IC90 [2]?
The IC90 was 9.45 nM.

What about the “inhibition” value [2] of the same molecule?
Its value is “inhibits the Y537N mutant receptor activity in a dose-response manner”.

What about the “Caov2 Ratio Cmax/IC90” value [3] of the same molecule?
Its value is 13.24.

What about the IC90 [3] of the same molecule?
Its IC90 is 8.31 nM.

And the “inhibition” value [3]?
The value was “inhibits the Y537C mutant receptor activity in a dose-response manner”.

And the IC90 [4]?
Its IC90 is 3.2 nM.

What about the “SKBR3 Ratio Cmax/IC90” value [4] of the same molecule?
The value was 34.38.

What about the “inhibition” value [4] of the same molecule?
Its value is “inhibits the ESR1 wild type receptor activity”.

And the IC90 [5]?
Its IC90 is 130 nM.

What about the “SKBR3 Ratio Cmax/IC90” value [5] of the same molecule?
The value was 0.85.

What about the “inhibition” value [5] of the same molecule?
Its value is “inhibits the Y537N mutant receptor activity in a dose-response manner”.

What about the IC90 [6] of the same molecule?
The IC90 was 59 nM.

And the “SKBR3 Ratio Cmax/IC90” value [6]?
Its value is 1.86.

And the “inhibition” value [6]?
The value was “inhibits the Y537C mutant receptor activity in a dose-response manner”.

And the Cmax ([7]; in vivo)?
Its Cmax is 1.1e-07 M.

What about the “Reported Cmax” value [8] of the same molecule?
The value was 40 ng/mL.

Which results are given for O=C(c1ccc(OCCN2CCCCC2)cc1)c1c(-c2ccc(O)cc2)sc2cc(O)ccc12 [Raloxifene, raloxifene]?
Cmax [7, 9]: 2.87e-09 M; Reported Cmax [8]: 1.36 ng/mL

Which Cmax [7, 9] does the source give for Cc1c(-c2ccc(O)cc2)n(Cc2ccc(OCCN3CCCCCC3)cc2)c2ccc(O)cc12 [Bazedoxifene, bazedoxifene] here?
Its Cmax is 7.29e-09 M.

And the “Reported Cmax” value [8]?
The value was 6.2 ng/mL.

For C[C@]12CC[C@@H]3c4ccc(O)cc4C[C@@H](CCCCCCCCC[S+]([O-])CCCC(F)(F)C(F)(F)F)[C@H]3[C@@H]1CC[C@@H]2O (some centres unmarked) [ICI, fulvestrant], which Cmax ([7]; human, in vivo) is on record?
Its Cmax is 4.6e-08 M.

And the “Reported Cmax” value [8]?
The value was 28 ng/mL.
